The target of this assay is NAMPT enzyme (Homo sapiens (Human), UniProt P43490). Put plainly: Enzyme Assay and NMN Detection (NAMPT reaction, fluorescence detection of NMN). Format: biochemical. The conditions noted are these: NAMPT activation, NMN formation. The procedure, abridged: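 Reaction in 50 mM HEPES pH 7.5, 5 mM MgCl2, 0.1% Prionex, 0.005% Tween 20, 1 mM TCEP at room temperature, with 16 nM NAMPT, 120 uM ATP, 5 uM nicotinamide, 6.25 uM PRPP, 0.04 U/ml pyrophosphatase for 2 h. Stopped with acetophenone/KOH then formic acid; NMN quantified by fluorescence (ex380/em460) against calibration curve.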
NAMPT enzyme, sequence (P43490 whole entry, species assumed): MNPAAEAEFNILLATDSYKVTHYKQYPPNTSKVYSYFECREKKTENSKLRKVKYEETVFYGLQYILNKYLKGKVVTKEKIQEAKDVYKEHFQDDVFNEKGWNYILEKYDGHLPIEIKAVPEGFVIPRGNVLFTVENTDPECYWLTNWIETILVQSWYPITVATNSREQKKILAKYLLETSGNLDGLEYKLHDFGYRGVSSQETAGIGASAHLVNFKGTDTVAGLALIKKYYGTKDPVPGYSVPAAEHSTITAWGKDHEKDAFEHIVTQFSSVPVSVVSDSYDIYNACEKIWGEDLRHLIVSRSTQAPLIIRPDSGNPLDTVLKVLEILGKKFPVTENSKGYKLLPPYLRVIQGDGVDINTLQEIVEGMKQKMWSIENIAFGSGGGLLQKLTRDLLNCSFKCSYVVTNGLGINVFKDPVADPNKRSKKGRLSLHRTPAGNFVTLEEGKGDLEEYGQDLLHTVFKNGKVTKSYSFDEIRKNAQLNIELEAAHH

For orientation: EC50 means the concentration needed to bring the measured effect to its halfway point. A high value points to lower potency in that assay. The compound `O=C(NCc1ccncc1)Nc1ccc(C(=O)Nc2ccc(OC(F)(F)F)cc2)cc1` [4-(3-(pyridin-4-ylmethyl)ureido)-N-(4-(trifluoromethoxy)phenyl)benzamide] came in with an EC50 (Table B-2) of 0.1 to 2 µM.
Same read-out and setting: the same measure for `O=C(NCc1ccncc1)Nc1ccc(C(=O)Nc2cncnc2)cc1` [4-(3-(pyridin-4-ylmethyl)ureido)-N-(pyrimidin-5-yl)benzamide]: 0.1 to 2 µM; for `O=C(NCc1ccncc1)Nc1ccc(C(=O)NC2CCOC2)cc1` (stereo not shown) [4-(3-(pyridin-4-ylmethyl)ureido)-N-(tetrahydrofuran-3-yl)benzamide]: 5 to 20 µM.
For `CCOC(=O)c1ccc(NC(=O)N(C)Cc2ccccc2)cc1` [4-(3-Benzyl-3-methyl-ureido)-benzoic acid ethyl ester], where the note is “Table B-3”, the EC50 was > 20 µM.
As for `O=C(NCc1ccncc1)Nc1ccc(S(=O)(=O)NC2CCCc3ccccc32)cc1` (stereo not shown) [4-(3-Pyridin-4-ylmethyl-ureido)-N-(1,2,3,4-tetrahydro-naphthalen-1-yl)-benzenesulfonamide], where the note is “Table B-2”, the half-maximal effective concentration (EC50) is < 0.1 µM.
Still for that read-out and setting: the same measure for `O=C(NCc1ccncc1)Nc1ccc(S(=O)(=O)NCCN2CCCC2)cc1` [4-(3-Pyridin-4-ylmethyl-ureido)-N-(2-pyrrolidin-1-yl-ethyl)-benzensulfonamide]: 2 to 5 µM; for `O=C(NCc1ccncc1)Nc1ccc(S(=O)(=O)NCc2ccccc2OC(F)(F)F)cc1` [4-(3-Pyridin-4-ylmethyl-ureido)-N-(2-trifluoromethoxy-benzyl)-benzenesulfonamide]: < 0.1 µM; for `O=C(NCc1ccncc1)Nc1ccc(S(=O)(=O)NCc2ccccc2C(F)(F)F)cc1` [4-(3-Pyridin-4-ylmethyl-ureido)-N-(2-trifluoromethyl-benzyl)-benzenesulfonamide]: 0.1 to 2 µM.
Same read-out and setting: with `O=C(NCc1ccncc1)Nc1ccc(S(=O)(=O)NCc2cccc(OC(F)(F)F)c2)cc1` [4-(3-Pyridin-4-ylmethyl-ureido)-N-(3-trifluoromethoxy-benzyl)-benzenesulfonamide] the figure was 0.1 to 2 µM; with `O=C(NCc1ccncc1)Nc1ccc(S(=O)(=O)NCc2cccc(C(F)(F)F)c2)cc1` [4-(3-Pyridin-4-ylmethyl-ureido)-N-(3-trifluoromethyl-benzyl)-benzenesulfonamide], 0.1 to 2 µM.
Same read-out and setting: the same measure for `O=C(NCc1ccncc1)Nc1ccc(S(=O)(=O)NCc2ccc(OC(F)(F)F)cc2)cc1` [4-(3-Pyridin-4-ylmethyl-ureido)-N-(4-trifluoromethoxy-benzyl)-benzenesulfonamide]: 0.1 to 2 µM; for `O=C(NCc1ccncc1)Nc1ccc(S(=O)(=O)NCc2ccc(C(F)(F)F)cc2)cc1` [4-(3-Pyridin-4-ylmethyl-ureido)-N-(4-trifluoromethyl-benzyl)-benzenesulfonamide]: 0.1 to 2 µM; for `O=C(NCc1ccncc1)Nc1ccc(S(=O)(=O)NC2CCOC2)cc1` (stereo not shown) [4-(3-Pyridin-4-ylmethyl-ureido)-N-(tetrahydro-furan-3-yl)-benzenesulfonamide]: 0.1 to 2 µM.
For the compound `Cc1cccc(NS(=O)(=O)c2ccc(NC(=O)NCc3ccncc3)cc2)c1` [4-(3-Pyridin-4-ylmethyl-ureido)-N-m-tolyl-benzenesulfonamide], the EC50 (Table B-2) lay in the range of 0.1 to 2 µM.
Still for that read-out and setting: with `Cc1ccccc1NS(=O)(=O)c1ccc(NC(=O)NCc2ccncc2)cc1` [4-(3-Pyridin-4-ylmethyl-ureido)-N-o-tolyl-benzenesulfonamide] the figure was 0.1 to 2 µM; with `Cc1ccc(NS(=O)(=O)c2ccc(NC(=O)NCc3ccncc3)cc2)cc1` [4-(3-Pyridin-4-ylmethyl-ureido)-N-p-tolyl-benzenesulfonamide], 0.1 to 2 µM; with `O=C(NCc1ccncc1)Nc1ccc(S(=O)(=O)Nc2ncccn2)cc1` [4-(3-Pyridin-4-ylmethyl-ureido)-N-pyrimidin-2-yl-benzenesulfonamide], 5 to 20 µM.
With `O=C(NCc1ccncc1)Nc1ccc(S(=O)(=O)NC2CCNC2)cc1` (stereo not shown) [4-(3-Pyridin-4-ylmethyl-ureido)-N-pyrrolidin-3-yl-benzenesulfonamide], the EC50 (Table B-2) was 5 to 20 µM.
Same read-out and setting: with `O=C(NCc1ccncc1)Nc1ccc(S(=O)(=O)Nc2nccs2)cc1` [4-(3-Pyridin-4-ylmethyl-ureido)-N-thiazol-2-yl-benzenesulfonamide] the figure was 0.1 to 2 µM.
`O=C(NCc1ccncc1)Nc1ccc(S(=O)(=O)Nc2ccccc2Cl)cc1` [4-(3-pyridin-4-ylmethyl-ureido)-N-(2-chloro-phenyl)-benzenesulfonamide] gave an EC50 (Table B-2) of 0.1 to 2 µM.
Take `O=C(NCc1ccncc1)Nc1ccc(S(=O)(=O)Nc2cccc(Cl)c2)cc1` [4-(3-pyridin-4-ylmethyl-ureido)-N-(3-chloro-phenyl)-benzenesulfonamide]: the EC50 (Table B-2) lay in the range of 0.1 to 2 µM.
Same read-out and setting: the same measure for `O=C(NCc1ccncc1)Nc1ccc(S(=O)(=O)Nc2ccc(Cl)cc2)cc1` [4-(3-pyridin-4-ylmethyl-ureido)-N-(4-chloro-phenyl)-benzenesulfonamide]: 0.1 to 2 µM; for `O=C(NCc1ccncc1)Nc1ccc(NS(=O)(=O)c2ccc(Cl)cc2)cc1` [4-Chloro-N-[4-(3-pyridin-4-ylmethyl-ureido)-phenyl]-benzenesulfonamide]: < 0.1 µM.
Same read-out and setting: the same measure for `COc1ccc(S(=O)(=O)Nc2ccc(NC(=O)NCc3ccncc3)cc2)cc1` [4-Methoxy-N-[4-(3-pyridin-4-ylmethyl-ureido)-phenyl]-benzenesulfonamide]: 0.1 to 2 µM.
`O=C(NCc1cn[nH]c1)Nc1ccc(S(=O)(=O)Nc2ccccn2)cc1` [4-[3-(1H-Pyrazol-4-ylmethyl)-ureido]-N-pyridin-2-yl-benzenesulfonamide] returned an EC50 (Table B-1) of 2 to 5 µM.
Where the note is “Table B-2”, `COC(=O)c1ccc(CNS(=O)(=O)c2ccc(NC(=O)NCc3ccncc3)cc2)cc1` [4-{[4-(3-Pyridin-4-ylmethyl-ureido)-benzenesulfonylamino]-methyl}-benzoic acid methyl ester] had an EC50 of 0.1 to 2 µM.
Compound `NC(=O)c1ccc(NC(=O)NCc2ccncc2)cn1` [5-(3-(pyridin-4-ylmethyl)ureido)picolinamide] gave an EC50 (Table B-3) of 2 to 5 µM.
Regarding `O=C(NCc1ccncc1)Nc1ccc(NS(=O)(=O)Cc2ccccc2Br)cc1` [C-(2-Bromo-phenyl)-N-[4-(3-pyridin-4-ylmethyl-ureido)-phenyl]-methanesulfonamide], for the setting “Table B-6”, the EC50 is < 0.1 µM.
For the compound `O=C(NCc1cn[nH]c1)Nc1ccc(NS(=O)(=O)Cc2ccccc2Cl)cc1` [C-(2-Chloro-phenyl)-N-{4-[3-(1H-pyrazol-4-ylmethyl)-ureido]-phenyl}-methanesulfonamide], the EC50 (Table B-4) was < 0.1 µM.
With `O=C(NCc1ccncc1)Nc1ccc(NS(=O)(=O)Cc2ccccc2F)cc1` [C-(2-Fluoro-phenyl)-N-[4-(3-pyridin-4-ylmethyl-ureido)-phenyl]-methanesulfonamide], the half-maximal effective concentration (EC50) (Table B-6) is < 0.1 µM.
On the same count and under the same terms, with `COc1ccccc1CS(=O)(=O)Nc1ccc(NC(=O)NCc2ccncc2)cc1` [C-(2-Methoxy-phenyl)-N-[4-(3-pyridin-4-ylmethyl-ureido)-phenyl]-methanesulfonamide] the figure was 0.1 to 2 µM.
In the case of `O=C(NCc1cn[nH]c1)Nc1ccc(NS(=O)(=O)Cc2ccc(Cl)c(Cl)c2)cc1` [C-(3,4-Dichloro-phenyl)-N-{4-[3-(1H-pyrazol-4-ylmethyl)-ureido]-phenyl}-methanesulfonamide], where the note is “Table B-4”, the EC50 is < 0.1 µM.
Consider `O=C(NCc1cn[nH]c1)Nc1ccc(NS(=O)(=O)Cc2cccc(Cl)c2)cc1` [C-(3-Chloro-phenyl)-N-{4-[3-(1H-pyrazol-4-ylmethyl)-ureido]-phenyl}-methanesulfonamide], for which the EC50 (Table B-4) was < 0.1 µM.
Consider `O=C(NCc1ccncc1)Nc1ccc(NS(=O)(=O)Cc2cccc(F)c2)cc1` [C-(3-Fluoro-phenyl)-N-[4-(3-pyridin-4-ylmethyl-ureido)-phenyl]-methanesulfonamide], for which the EC50 (Table B-6) is < 0.1 µM.
Same read-out and setting: with `COc1cccc(CS(=O)(=O)Nc2ccc(NC(=O)NCc3ccncc3)cc2)c1` [C-(3-Methoxy-phenyl)-N-[4-(3-pyridin-4-ylmethyl-ureido)-phenyl]-methanesulfonamide] the figure was < 0.1 µM.
In the case of `O=C(NCc1ccncc1)Nc1ccc(NS(=O)(=O)Cc2ccc(Br)cc2)cc1` [C-(4-Bromo-phenyl)-N-[4-(3-pyridin-4-ylmethyl-ureido)-phenyl]-methanesulfonamide], the EC50 (Table B-6) is < 0.1 µM.
On to `O=C(NCc1cn[nH]c1)Nc1ccc(NS(=O)(=O)Cc2ccc(Cl)cc2)cc1` [C-(4-Chloro-phenyl)-N-{4-[3-(1H-pyrazol-4-ylmethyl)-ureido]-phenyl}-methanesulfonamide], for which, under “Table B-4”, the concentration giving a half-maximal response (EC50) was < 0.1 µM.
Take `N#Cc1ccc(CS(=O)(=O)Nc2ccc(NC(=O)NCc3ccncc3)cc2)cc1` [C-(4-Cyano-phenyl)-N-[4-(3-pyridin-4-ylmethyl-ureido)-phenyl]-methanesulfonamide]: the EC50 (Table B-6) is 0.1 to 2 µM.
The same measure, in the same setting: the same measure for `O=C(NCc1ccncc1)Nc1ccc(NS(=O)(=O)Cc2ccc(C3CC3)cc2)cc1` [C-(4-Cyclopropyl-phenyl)-N-[4-(3-pyridin-4-ylmethyl-ureido)-phenyl]-methanesulfonamide]: < 0.1 µM; for `COc1ccc(CS(=O)(=O)Nc2ccc(NC(=O)NCc3ccncc3)cc2)cc1` [C-(4-Methoxy-phenyl)-N-[4-(3-pyridin-4-ylmethyl-ureido)-phenyl]-methanesulfonamide]: < 0.1 µM; for `O=C(NCc1ccncc1)Nc1ccc(NS(=O)(=O)Cc2ccc(-c3ccccc3)cc2)cc1` [C-Biphenyl-4-yl-N-[4-(3-pyridin-4-ylmethyl-ureido)-phenyl]-methanesulfonamide]: < 0.1 µM.
In the case of `CCOC(=O)c1ccccc1NC(=O)NCc1ccncc1` [Ethyl 2-(3-(pyridin-4-ylmethyl)ureido)benzoate], the EC50 (Table B-2) is > 20 µM.
Under “Table B-2”, `CCOC(=O)c1cccc(NC(=O)NCc2ccncc2)c1` [Ethyl 3-(3-(pyridin-4-ylmethyl)ureido)benzoate] displayed an EC50 of 5 to 20 µM.
